# Patent publication US9453008B2, “Antithrombotic and antiatherosclerotic agent and method for producing same (variants)” (PROTON OOO, priority 2011, dated 2016)
# How the values were obtained:
# [1] = tested on: spontaneously hypertensive (SHT) rats; test: Blood pressure in narcotized SHT rats, intravenous administration; type: in vivo, rat
# Procedure: (§1) The experiments were performed on spontaneously hypertensive (SHT) and normotensive (NT) narcotized male rats using intravenous administration of the tested compounds. The ability of the compound to reduce arterial blood pressure (BP) in SHT rats and prevent spasmogenic reactions to noradrenalin (NA) and angiotensin I (AI).
# The compound of formula I was used as a solution in 3% aqueous DMSO. Sodium nitroprusside and nitroglycerin were used as reference drugs.
# The administration of the compound of formula I in dose range 0.01-0.1-0.5 and 1.0 mg/kg has exerted dose-dependent antihypertensive effect ranging in time from 30-40 s to 60 min and more.
# [2] = tested on: pressor effect of noradrenaline; test: Pressor effect of noradrenaline after intravenous administration in normotensive narcotized rats; type: in vivo, rat
# Procedure: as §1
# (§2) The effects of the compound of formula I on the pressor effects of noradrenaline (NA, 10-15 μg/kg), mesatonum (M, 5 μg/kg) and angiotensin (AI, 5 μg/kg) were studied on normotensive narcotized […]. Antihypertensive action of the compound of formula I was assessed relative to the pressor effects of the control administration of the aforementioned compounds.
# [3] = tested on: pressor effect of angiotensin I; test: Pressor effect of angiotensin I after intravenous administration in normotensive narcotized rats; type: in vivo, rat
# Procedure: as §1, §2
# non-narcotized SHT rats = test: Blood pressure in non-narcotized SHT rats, intragastric administration (non-invasive BP measurement); type: in vivo, rat; details: 10 mg/kg orally, 0 - absence of effect
# Procedure: In experiments on non-narcotized SHT rats intragastric administration of the compound of formula I has caused dose-dependent reduction of BP, the duration of which was increased correspondingly with dose increase (maximal duration of effect 5 hours after single administration of 50 mg/kg dose, Table 3).
# [4] = higher doses (above 0.01 mg/kg) intravenous
structure (smiles),measurement,setting,value
"O=[N+]([O-])OCC(CO[N+](=O)[O-])O[N+](=O)[O-] [Nitroglycerin, reference compound]",Duration of BP reduction,[1]; 0.01 mg/kg dose intravenous,30 to 40 s
same,Reduction of BP,[1]; 0.01 mg/kg dose intravenous,10-15 mmHg
same,"Reduction of BP, mmHg (Δ)","[1]; 0.01 mg/kg intravenously, 10-20 s",−5 mmHg
same,"Reduction of BP, mmHg (Δ)","[1]; 0.01 mg/kg intravenously, 5 min",−10 ± 3 mmHg
same,"Reduction of BP, mmHg (Δ)","[1]; 0.01 mg/kg intravenously, 30 min",−3 mmHg
same,"Reduction of BP, mmHg (Δ)","[1]; 0.1 mg/kg intravenously, 10-20 s",−7 ± 3 mmHg
same,"Reduction of BP, mmHg (Δ)","[1]; 0.1 mg/kg intravenously, 5 min",−20 ± 5 mmHg
same,"Reduction of BP, mmHg (Δ)","[1]; 0.1 mg/kg intravenously, 30 min",−5 mmHg
same,"Reduction of BP, mmHg (Δ)","[1]; 0.5 mg/kg intravenously, 10-20 s",−12 ± 3 mmHg
same,"Reduction of BP, mmHg (Δ)","[1]; 0.5 mg/kg intravenously, 5 min",−25 ± 7 mmHg
same,"Reduction of BP, mmHg (Δ)","[1]; 0.5 mg/kg intravenously, 30 min",−5 mmHg
same,"Reduction of BP, mmHg (Δ)","[1]; 1.0 mg/kg intravenously, 10-20 s",−10 ± 3 mmHg
same,"Reduction of BP, mmHg (Δ)","[1]; 1.0 mg/kg intravenously, 5 min",−25 ± 8 mmHg
same,"Reduction of BP, mmHg (Δ)","[1]; 1.0 mg/kg intravenously, 30 min",−7 ± 3 mmHg
same,Duration of BP reduction,[1]; [4],300 to 360 s
same,Reduction of BP,[1]; [4],20-25 mmHg
same,Inhibition of pressor reaction (%) induced by Noradrenaline,[2]; 0.5 mg/kg intravenous,20-25%
same,Inhibition of pressor reaction (%) induced by Noradrenaline,[2]; 1.0 mg/kg intravenous,40-50%
same,Inhibition of pressor reaction (%) induced by Angiotensin I,"[3]; 0.5 mg/kg intravenous, 0 - absence of effect",0%
same,Inhibition of pressor reaction (%) induced by Angiotensin I,[3]; 1.0 mg/kg intravenous,25-30%
same,"Reduction of BP, mmHg","non-narcotized SHT rats; time column 1, 1 h after dosing",0 mmHg
same,"Reduction of BP, mmHg","non-narcotized SHT rats; time column 2, 2 h after dosing",0 mmHg
same,"Reduction of BP, mmHg","non-narcotized SHT rats; time column 3, 3 h after dosing",0 mmHg
same,"Reduction of BP, mmHg","non-narcotized SHT rats; time column 4, 4 h after dosing",0 mmHg
same,"Reduction of BP, mmHg","non-narcotized SHT rats; time column 5, 5 h after dosing",0 mmHg
same,"Reduction of BP, mmHg","non-narcotized SHT rats; time column 6, 6 h after dosing",0 mmHg
"CN1CCOC1=C(C#N)C=C1Nc2ccccc2C1=O [IX, 2-[2-Cyano-2-(3-methyloxazolidin-2-ylidene)ethylidene]indolin-3-one]",melting point,,222 to 226 °C (dec.)
"CN1CC(C(O)C(O)C(O)CO)OC1=C(C#N)C=C1Nc2ccccc2C1=O (stereo not shown) (hydrate or solvate) [X, 2-[2-Cyano-2-[3-methyl-5-(1,2,3,4-tetrahydroxybutyl)oxazolidin-2-ylidene]ethylidene]indolin-3-one]",melting point,,237 °C (dec.)
